Test system: strains of Enterobacteriaceae producing various carbapenemases (class A, D and B; 104 strains)
Assay: Antibiotics potentiation by Compound 27 (MIC; meropenem, doripenem, ertapenem, cefepime)
Assay type: cell-based
Conditions: + 27 = with Compound 27 at fixed 4 μg/ml

C[C@@H](O)[C@H]1C(=O)N2C(C(=O)O)=C(S[C@@H]3CN[C@H](CNS(N)(=O)=O)C3)[C@H](C)[C@H]12 [D]
MIC (strain CF1012 Citrobacter freundii (KPC-2)): Y (MIC of 1 μg/mL to 10 μg/mL) | MIC (strain CF1021 Citrobacter freundii (CMY-type; VIM-1)): Y (MIC of 1 μg/mL to 10 μg/mL) | MIC (strain CF1022 Citrobacter freundii (SHV-12(2be), TEM-OSBL(2b); IMP-8)): Y (MIC of 1 μg/mL to 10 μg/mL) | MIC (strain CF1023 Citrobacter freundii (SHV-12(2be), TEM-OSBL(2b); CTX-M-3; CMY-34; NDM-1)): Z (MIC of greater than 10 μg/mL) | MIC (strain CL1080 Enterobacter cloacae (IMP-1)): X (MIC of less than 1 μg/mL) | MIC (strain EA1019 Enterobacter aerogenes (SHV-5, VIM-1)): Z (MIC of greater than 10 μg/mL) | MIC (strain EC1007 Escherichia coli (KPC-3)): X (MIC of less than 1 μg/mL) | MIC (strain EC1061 Escherichia coli (NDM-1, CMY-6)): Z (MIC of greater than 10 μg/mL) | MIC (strain EC1062 Escherichia coli (OXA-48, CTX-M-15)): X (MIC of less than 1 μg/mL) | MIC (strain EC1064 Escherichia coli (NDM-1, CMY-6, CTX-M-15)): Z (MIC of greater than 10 μg/mL) | MIC (strain EC1065 Escherichia coli (IMP-1)): Y (MIC of 1 μg/mL to 10 μg/mL) | MIC (strain EC1068 Escherichia coli (VIM-1)): Z (MIC of greater than 10 μg/mL) | MIC (strain EC1069 Escherichia coli (CTX-M-27; NDM-1)): Z (MIC of greater than 10 μg/mL) | MIC (strain EC1070 Escherichia coli (TEM-OSBL(2b); CMY-42; NDM-5)): Z (MIC of greater than 10 μg/mL) | MIC (strain EC1072 Escherichia coli (CTX-M-3; NDM-1)): Z (MIC of greater than 10 μg/mL) | MIC (strain ECL1004 Enterobacter cloacae (NMC-A)): Y (MIC of 1 μg/mL to 10 μg/mL) | MIC (strain ECL1026 Enterobacter cloacae (KPC-2, TEM-1)): Y (MIC of 1 μg/mL to 10 μg/mL) | MIC (strain ECL1036 Enterobacter cloacae (KPC-3, TEM-1)): Y (MIC of 1 μg/mL to 10 μg/mL) | MIC (strain ECL1045 Enterobacter cloacae (VIM-1)): Y (MIC of 1 μg/mL to 10 μg/mL) | MIC (strain ECL1055 Enterobacter cloacae (KPC-3, TEM)): Y (MIC of 1 μg/mL to 10 μg/mL) | MIC (strain ECL1057 Enterobacter cloacae (NDM-1, TEM-1, CTX-M-15)): Z (MIC of greater than 10 μg/mL) | MIC (strain ECL1058 Enterobacter cloacae (KPC-3, SHV-11, TEM-1)): Z (MIC of greater than 10 μg/mL) | MIC (strain ECL1059 Enterobacter cloacae (KPC-3, SHV-12, TEM-1)): Y (MIC of 1 μg/mL to 10 μg/mL) | MIC (strain ECL1061 Enterobacter cloacae (KPC-3, Hyper AmpC expression)): Y (MIC of 1 μg/mL to 10 μg/mL) | MIC (strain ECL1082 Enterobacter cloacae (VIM-1)): Z (MIC of greater than 10 μg/mL) | MIC (strain ECL1084 Enterobacter cloacae (CTX-M-15; ACT-16; NDM-1)): Z (MIC of greater than 10 μg/mL) | MIC (strain ECL1085 Enterobacter cloacae (SHV-31(2be), TEM-1(2b); CTX-M-15; NDM-1)): Z (MIC of greater than 10 μg/mL) | MIC (strain ECL1086 Enterobacter cloacae (VIM-31, OXA-48(c))): Y (MIC of 1 μg/mL to 10 μg/mL) | MIC (strain ECL1087 Enterobacter cloacae (VIM-1)): Z (MIC of greater than 10 μg/mL) | MIC (strain ECL1088 Enterobacter cloacae (TEM-1(2b); CTX-M-14; ACT-type; VIM-1)): Z (MIC of greater than 10 μg/mL) | MIC (strain ECL1089 Enterobacter cloacae (ACT-type; IMP-1)): Z (MIC of greater than 10 μg/mL) | MIC (strain ECL1090 Enterobacter cloacae (TEM-1(2b); CTX-M-22; ACT-type; IMP-8)): Y (MIC of 1 μg/mL to 10 μg/mL) | MIC (strain ECL1091 Enterobacter cloacae (VIM-1)): Z (MIC of greater than 10 μg/mL) | MIC (strain ECL1092 Enterobacter cloacae (TEM-OSBL(2b); ACT-32; VIM-1)): Y (MIC of 1 μg/mL to 10 μg/mL) | MIC (strain ECL1093 Enterobacter cloacae (TEM-OSBL(2b); ACT-32; VIM-1)): Y (MIC of 1 μg/mL to 10 μg/mL) | MIC (strain ECL1094 Enterobacter cloacae (VIM-1)): Z (MIC of greater than 10 μg/mL) | MIC (strain ECL1096 Enterobacter cloacae (CMY-4, VIM-4, OXA-48(c))): Y (MIC of 1 μg/mL to 10 μg/mL) | MIC (strain ECL1097 Enterobacter cloacae (SHV-31(2be), TEM-OSBL(2b); CTX-M-15; ACT-31; NDM-1)): Z (MIC of greater than 10 μg/mL) | MIC (strain ECL1098 Enterobacter cloacae (TEM-OSBL(2b); DHA-1; ACT-16; NDM-1)): Z (MIC of greater than 10 μg/mL) | MIC (strain KP1001 Klebsiella pneumoniae (KPC TEM SHV)): Z (MIC of greater than 10 μg/mL) | MIC (strain KP1002 Klebsiella pneumoniae (KPC TEM SHV)): Y (MIC of 1 μg/mL to 10 μg/mL) | MIC (strain KP1003 Klebsiella pneumoniae (KPC TEM SHV)): Y (MIC of 1 μg/mL to 10 μg/mL) | MIC (strain KP1004 Klebsiella pneumoniae (KPC-2, TEM-1, SHV-11)): Y (MIC of 1 μg/mL to 10 μg/mL) | MIC (strain KP1008 Klebsiella pneumoniae (KPC-2)): X (MIC of less than 1 μg/mL) | MIC (strain KP1014 Klebsiella pneumoniae (VIM-1, TEM, SHV)): Z (MIC of greater than 10 μg/mL) | MIC (strain KP1054 Klebsiella pneumoniae (VIM-1, SHV-11)): Z (MIC of greater than 10 μg/mL) | MIC (strain KP1059 Klebsiella pneumoniae (VIM-1, SHV-11)): Z (MIC of greater than 10 μg/mL) | MIC (strain KP1061 Klebsiella pneumoniae (KPC-3, SHV-11, TEM-1)): Z (MIC of greater than 10 μg/mL) | MIC (strain KP1064 Klebsiella pneumoniae (KPC-2, SHV-11, TEM-1)): Z (MIC of greater than 10 μg/mL) | MIC (strain KP1065 Klebsiella pneumoniae (VIM-1, SHV-11)): Y (MIC of 1 μg/mL to 10 μg/mL) | MIC (strain KP1070 Klebsiella pneumoniae (KPC-2, SHV-11, TEM-1)): Y (MIC of 1 μg/mL to 10 μg/mL) | MIC (strain KP1074 Klebsiella pneumoniae (KPC-3, SHV-11, TEM)): Z (MIC of greater than 10 μg/mL)

From patent US10206937B2, “Boronic acid derivatives and therapeutic uses thereof” (Qpex Biopharma, Inc., priority 2014, dated 2019)
